Measurements as given in patent US12466832B2, “Monohydrate and crystalline forms of 6-[(3S,4S)-4-methyl-1-(pyrimidin-2-ylmethyl)pyrrolidin-3-yl]-3-tetrahydropyran-4-yl-7H-imidazo[1,5-a]pyrazin-8-one” (Cardurion Pharmaceuticals, Inc., priority 2018, dated 2025).
≈ marks a conversion by molar mass, not a printed value. Entries after “also recorded” stand apart in the source; their conditions may differ. Blank lines part the entries; values can stand above or below the compound they belong to.

What was measured:
Format in all cases: physicochemical
[1] = Gravimetric Vapour Sorption (GVS)
Procedure: Sorption isotherms were obtained using a SMS DVS Intrinsic moisture sorption analyzer, controlled by DVS Intrinsic Control software. The sample temperature was maintained at 25° C. by the instrument controls. The humidity was controlled by mixing streams of dry and wet nitrogen, with a total flow rate of 200 ml/min. The relative humidity was measured by a calibrated Rotronic probe (dynamic range of 1.0-100% RH), located near the sample. The weight change, (mass relaxation) of the sample as a function of % RH was constantly monitored by a microbalance (accuracy ±0.005 mg).
Typically, 5-30 mg of sample was placed in a tared mesh stainless steel basket under ambient conditions. The sample was loaded and unloaded at 40% RH and 25° C. (typical room conditions). A moisture sorption isotherm was performed as outlined below (2 scans per complete cycle). The standard isotherm was performed at 25° C. at 10% RH intervals over a 0-90% RH range. Typically, a double cycle (4 scans) was carried out. Data analysis was carried out within Microsoft Excel using the DVS Analysis Suite.
The sample was recovered after completion of the isotherm and re-analyzed by XRPD.

[2] = Drying investigation of the two hydrates (vacuum oven, XRPD and TGA)
Procedure: Procedure: MH1 and MH2 were placed in a vacuum oven at 50° C. and RT for 24 h. The samples were then analysed by TGA and XRPD immediately after removal and after 4 hours standing under ambient conditions.

[3] = Solubility repeat at pH 1.2 (reverse addition); settings: pH 1.2 buffered media, pH maintained at 1.2, reverse addition
Procedure: Procedure: pH 1.2 buffered media (0.4 ml) was added to two separate 7 ml vials. For each compound, material was added in portions to the pH 1.2 media. After each addition of compound, the vial was vortex mixed and the pH and appearance was recorded. The samples were adjusted to pH 1.2 with 1M HCl to within 0.05 of the desired pH unit. This was repeated until no further material was available (˜400 mg for each form, which would give a maximum concentration of around 1000 mg/ml if no adjustment was required).

[4] = Variable temperature XRPD (VT XRPD)
Procedure: For variable temperature (VT) experiments the samples were prepared and analysed in an Anton Paar chromed sample holder. A heating/cooling rate of 10° C./min was used with a 2 min isothermal hold before the measurement started. The measurement parameters are as per the standard screening data collection method (detailed above). Measurements were taken at the following temperatures: 25, 50, 75, 100, 160, and 25° C. The sample was then reanalyzed by XRPD after 1 h to check for complete rehydration.
MH1 was analysed at 25, 50, 75, 100, 160 and 25° C. (10° C./min heating rate and a 2 min wait before the measurement started) on the Empyrean. The sample was then reanalysed by XRPD after 10 and 20 min to check for rehydration.
(§1) Procedure: A second batch of MH2 material was prepared using the same procedure. This sample was then analysed by VTXRPD and by XRPD under vacuum.

XRPD under vacuum = test: XRPD under vacuum
Procedure: For vacuum experiments the samples were prepared and analysed in an Anton Paar chromed sample holder. The measurement parameters are as per the standard screening data collection method (detailed above), at 25° C. with no vacuum (I2). A vacuum of around 50 mbar was then applied and the sample measured every 5 min until the anhydrate pattern was obtained for three consecutive measurements (to ensure complete dehydration, up to sample I8). The vacuum was then released and the sample analysed every 5 min for 6 measurements (until sample I22). The sample was then reanalyzed by XRPD after 1 h to check for complete rehydration.
MH1 was analysed at 25° C. with no vacuum. A vacuum of around 50 mbar was then applied and the sample measured every 5 min until the anhydrate pattern was obtained for three consecutive measurements (to ensure complete dehydration). The vacuum was then released and the sample analysed every 5 min for 6 measurements before the front of the sample stage was removed.
as §1

[5] = pH profiling solubility experiments; settings: 25 °C, thermodynamic from solid
Procedure: Procedure: pH profiling solubility experiments were performed on MH1 and MH2. Solubility was determined in singlicate by suspending sufficient compound in relevant media (1.00 ml) to give a maximum final concentration as shown in the Table 17.
The suspensions were equilibrated at 25° C., on a Heidolph plate shaker set to 750 rpm for 24 hours. Samples were pH adjusted as required using 0.5M/1M HCl and 0.2M NaOH to within 0.1 of the desired pH unit (where possible). The pHs of the saturated solutions were measured (where applicable) and an appearance was recorded. The suspensions were filtered through a glass fibre C filter (particle retention […]) and diluted appropriately. Quantitation was by HPLC with reference to a standard solution of approximately 0.15 mg/ml in DMSO. Different volumes of the standard, diluted and undiluted sample solutions were injected. The solubility was calculated using the peak areas determined by integration of the peak found at the same retention time as the principal peak in the standard injection.

[6] = Thermodynamic aqueous solubility; settings: thermodynamic from solid, water, 25° C.
Procedure: Aqueous solubility was determined by suspending sufficient compound in relevant media to give a maximum final concentration of ≥200 mg/ml of the parent freeform of the compound. The suspension was equilibrated at 25° C., on a Heidolph plate shaker set to 750 rpm for 24 hours. The pH of the saturated solution was then measured and the suspension filtered through a glass fibre C filter (particle retention 1.2 μm) and diluted appropriately. Quantitation was by HPLC with reference to a standard solution of approximately 0.15 mg/ml in DMSO. Different volumes of the standard, diluted and undiluted sample solutions were injected.
The solubility was calculated using the peak areas determined by integration of the peak found at the same retention time as the principal peak in the standard injection.
Analysis was performed on an Agilent HP1100 series system equipped with a diode array detector and using ChemStation software.

XRPD (T = 0, 50° C.) ([2]; vacuum oven 50° C. 24 h, immediately after removal): Matches MH1 and AH
TGA (T = 0, 50° C.) ([2]; vacuum oven 50° C. 24 h, immediately after removal, lost between 25 and 100° C.): 0.6% w/w lost between
TGA (T = 4 h, 50° C.) ([2]; vacuum oven 50° C. 24 h, then 4 hours ambient, lost between 25 and 100° C.): 1.9% w/w lost between
XRPD (T = 4 h, 50° C.) ([2]; vacuum oven 50° C. 24 h, then 4 hours at ambient conditions): Matches MH1
XRPD (T = 0, RT) ([2]; vacuum oven RT 24 h, immediately after removal): Matches MH1 and AH
TGA (T = 0, RT) ([2]; vacuum oven RT 24 h, immediately after removal, lost between 25 and 100° C.): 0.2% w/w lost between
TGA (T = 4 h, RT) ([2]; vacuum oven RT 24 h, then 4 hours ambient, lost between 25 and 100° C.): 1.9% w/w lost between
XRPD (T = 4 h, RT) ([2]; vacuum oven RT 24 h, then 4 hours at ambient conditions): Matches MH1
Solubility at pH 1.2 [3]: >161 mg/ml
Form by VT XRPD upon heating ([4]; 50° C.): mixture of MH2 and AH
Form by VT XRPD upon heating ([4]; 75° C.): complete conversion to AH
Form by VT XRPD after cooling back ([4]; re-cooled to 25° C.): completely transformed into MH1
Final XRPD pattern after vacuum released (XRPD under vacuum; data collected for 55 minutes after release): mixture of AH and MH1
Form by XRPD on reanalysis (XRPD under vacuum; reanalyzed after 1 h): complete rehydration to MH 1
Time under vacuum to conversion to the anhydrate by XRPD (XRPD under vacuum; vacuum of around 50 mbar, 25° C.): 5 min
solubility at 24 h ([5]; pH 1.2 media, pH 1.2, simulated gastric fluid, media pH 1.2, 25° C., pH not maintained, final pH 5.02 (MH1-A), 6.63 (MH2-A)): > 275 mg/mL
solubility at 24 h ([5]; pH 4.0 media, pH 4, aqueous buffer, media pH 4.0, 25° C.): > 99 mg/mL
solubility at 24 h ([5]; pH 6.5 media, pH 6.5, aqueous buffer, media pH 6.5, 25° C.): > 147 mg/mL
solubility at 24 h ([5]; pH 7.5 media, pH 7.5, aqueous buffer, media pH 7.5, 25° C.): 58 mg/mL (≈ 147 mM)
solubility thermodynamic at 24 h [6]: 36.5 mg/mL (≈ 92.5 mM)
Structure (SMILES): C[C@@H]1CN(Cc2ncccn2)C[C@H]1c1cn2c(C3CCOCC3)ncc2c(=O)[nH]1 [MH2, 6-[(3S,4S)-4-methyl-1-(pyrimidin-2-ylmethyl)pyrrolidin-3-yl]-3-tetrahydropyran-4-yl-7H-imidazo[1,5-a]pyrazin-8-one]
GVS first sorption cycle uptake ([1]; 40 to 90% RH, 25° C.): lack of uptake; also recorded: First sorption cycle from 40 to 90% RH, no uptake
XRPD post-GVS ([1]; solid form after GVS): rehydrated as MH1; also recorded: Crystalline - Matches MH1

Conversion under ambient conditions ([4]; after VT XRPD, standing at 25° C.): readily converts to MH1
Conversion under ambient conditions (XRPD under vacuum; after vacuum XRPD, ambient air): readily converts to MH1
Structure (SMILES): C[C@@H]1CN(Cc2ncccn2)C[C@H]1c1cn2c(C3CCOCC3)ncc2c(=O)[nH]1 [anhydrate, 6-[(3S,4S)-4-methyl-1-(pyrimidin-2-ylmethyl)pyrrolidin-3-yl]-3-tetrahydropyran-4-yl-7H-imidazo[1,5-a]pyrazin-8-one]
